Here are results for 26 compounds from patent US12268694B2, “Combination pharmaceutical agents as RSV inhibitors” (Enanta Pharmaceuticals, Inc., priority 2017, dated 2025).

The EC50 is the concentration at which the effect is half-maximal.

The first assay relates to genotype A, "Long" strain RSV. Kind of assay: RSV-A assay: CPE protection in HEp-2 cells, ATPlite readout. As to conditions: HEp-2 cells, RSV-A Long strain, ATPlite readout; read-out: Human RSV-A (“Long” strain) EC50. It counts as cell-based, human respiratory syncytial virus. The gist of the method:
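HEp-2 cells (8,000/well) with 2-fold compound dilutions in duplicate, infected with Long-strain RSV at MOI 0.1 and incubated 5 days. Cell ATP measured by ATPlite luminescence to give EC50; uninfected parallel plate gives CC50.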
Background: ATP-based viability assays read luminescence as a measure of living cells.
As for `O=C1Nc2ccccc2C(c2ccccc2)=NC1Nc1nnc(-c2ncc(F)cc2N2CCOCC2)o1` (centres unmarked) [Example 138], the EC50 is less than 400 nM. Still for that read-out and setting: in the case of `O=C1Nc2ccccc2C(c2ccccc2)=N[C@@H]1Nc1nnc(-c2ncc(C(F)(F)F)cc2N[C@H]2CC[C@H]2O)o1` [Example 417] it was greater than 800 nM.

The assay is the same for the next values; noted with them: human respiratory syncytial virus, HEp-2, read-out: Human RSV-A (“Long” strain) EC50.
`O=C1Nc2ccccc2C(c2ccccc2)=NC1Nc1cnc(-c2ccc(F)cc2)cn1` (centres unmarked) [Example 373]: the half-maximal effective concentration (EC50) was greater than 800 nM.

Turning to `N#Cc1cnc(-c2nnc(N[C@H]3N=C(c4ccccc4)c4cccc(F)c4NC3=O)o2)c(N2CCOCC2)c1` [Example 361], the EC50 is less than 400 nM. As to `COc1ccc(-c2ccc(NC3N=C(c4ccccc4)c4ccccc4NC3=O)nn2)cc1` (centres unmarked) [Example 376], the EC50 was greater than 800 nM. As for `CS(=O)(=O)c1cnc(-c2nnc(N[C@H]3N=C(c4ccccc4)c4ccccc4NC3=O)o2)c(N2CCOCC2)c1` [Example 332], the EC50 is greater than 800 nM. For the compound `Cc1ccc(-c2nnc(N[C@H]3N=C(c4ccccc4)c4ccccc4NC3=O)o2)c(N2CC3CCC(C2)O3)n1` [Example 279], the EC50 was less than 400 nM. On to `O=C1Nc2ccccc2C(c2ccccc2)=N[C@@H]1Nc1nnc(-c2nc(C(F)(F)C(F)(F)F)sc2N2CCOCC2)o1` [Example 454], for which the EC50 was less than 400 nM. Regarding `O=C1Nc2ccccc2C(c2ccccc2)=NC1Nc1ccc(-c2ccncc2)nn1` (centres unmarked) [Example 375], the EC50 was greater than 800 nM.

As to `O=C1Nc2ccccc2C(c2ccccc2)=N[C@@H]1Nc1nnc(-c2oc3cccc(F)c3c2N2CCOCC2)o1` [Example 477], the EC50 was less than 400 nM. Still for that read-out and setting: in the case of `CN1CCN(c2ccc(-c3nnc(NC4N=C(c5ccccc5)c5ccccc5NC4=O)o3)cc2)CC1` (centres unmarked) [Example 210] it was greater than 800 nM; in that of `CN1CCC(N2CCC[C@H]2c2nnc(NC3N=C(c4ccccc4)c4ccccc4NC3=O)o2)CC1` (some centres unmarked) [Example 228], greater than 800 nM. On to `N#Cc1ccc(-c2nnc(N[C@H]3N=C(c4ccccc4)c4ccccc4NC3=O)o2)c(-c2ccoc2)c1` [Example 319], for which the EC50 is greater than 800 nM. On to `O=C1Nc2ccccc2C(c2ccccc2)=N[C@@H]1Nc1nnc(-c2ccc(N3CCCC3)cc2N2CCOCC2)o1` [Example 317], for which the EC50 was less than 400 nM. As to `O=C1Nc2ccccc2C(c2ccccc2)=N[C@@H]1Nc1nnc(-c2ncc(C(F)(F)F)cc2N2CCOC(C(F)(F)F)C2)o1` (mixture of isomers) [Example 467], the EC50 was less than 400 nM. For the compound `O=C1Nc2ccccc2C(c2ccccc2)=NC1Nc1noc(-c2ccccc2)n1` (centres unmarked) [Example 91], the EC50 was greater than 800 nM. For the compound `O=C1Nc2ccccc2C(c2ccccc2)=N[C@@H]1Nc1nnc(-c2cnc(C(F)(F)F)nc2N2CCOCC2)o1` [Example 162], the EC50 was less than 400 nM. As for `COCCn1ccnc1-c1nnc(N[C@H]2N=C(c3ccccc3)c3ccccc3NC2=O)o1` [Example 306], the EC50 was greater than 800 nM. On to `O=C1Nc2ccccc2C(c2ccccc2)=NC1Nc1nnc(-c2nc(Br)sc2N2CCOCC2)o1` (centres unmarked) [Example 400], for which the concentration giving a half-maximal response (EC50) is less than 400 nM. Same read-out and setting: under `N#Cc1cc(N2CCOCC2)c(-c2nnc(N[C@H]3N=C(c4ccccc4)c4ccccc4NC3=O)o2)s1` [Example 323] stands less than 400 nM; under `Cn1cc(-c2cc(C#N)ccc2-c2nnc(N[C@H]3N=C(c4ccccc4)c4ccccc4NC3=O)o2)ccc1=O` [Example 315], greater than 800 nM.

In the case of `COCCn1nccc1-c1nnc(N[C@H]2N=C(c3ccccc3)c3ccccc3NC2=O)o1` [Example 310], the EC50 was greater than 800 nM. For `CS(=O)(=O)c1ccc(-c2nnc(NC3N=C(c4ccccc4)c4ccccc4NC3=O)o2)c(N2CCOCC2)c1` (centres unmarked) [Example 121], the EC50 was greater than 800 nM. Still for that read-out and setting: in the case of `CS(=O)(=O)c1ccc(-c2nnc(NC3N=C(c4ccccc4)c4ccccc4NC3=O)o2)nc1` (centres unmarked) [Example 107] it was greater than 800 nM; in that of `COCC1(Nc2cc(C(F)(F)F)cnc2-c2nnc(N[C@H]3N=C(c4ccccc4)c4ccccc4NC3=O)o2)CC1` [Example 415], greater than 800 nM. Same read-out and setting: under `O=C1Nc2ccccc2C(c2ccccc2)=N[C@@H]1Nc1nnc(-c2ccc(C(F)(F)F)nc2N2C3CCC2COC3)o1` [Example 275] stands greater than 800 nM.
